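Compound exposure: 48 hours, 5 concentrations, 96-well plates. At the GI50, growth is halved.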 The source made the active and inactive calls. Cut-off read from the data, not from the text of the source: active = GI50 up to about 1.1 µM and inactive = higher.
Assays:
Assay in all cases: NCI-60 cell line screen, 48 h
786-0 = tested on: 786-0
A549 = tested on: A549
ACHN = tested on: ACHN
BT-549 = tested on: BT-549
CAKI-1 = tested on: CAKI-1
CCRF-CEM = tested on: CCRF-CEM
COLO 205 = tested on: COLO 205
DU-145 = tested on: DU-145
EKVX = tested on: EKVX
HCC 2998 = tested on: HCC 2998
HCT-116 = tested on: HCT-116
HCT-15 = tested on: HCT-15
HL-60 = tested on: HL-60
HOP-62 = tested on: HOP-62
HT-29 = tested on: HT-29
Hs-578T = tested on: Hs-578T
IGROV-1 = tested on: IGROV-1
K562 = tested on: K562
KM12 = tested on: KM12
LOX IMVI = tested on: LOX IMVI
M14 = tested on: M14
MCF7 = tested on: MCF7
MDA-MB-231 = tested on: MDA-MB-231
MDA-MB-435 = tested on: MDA-MB-435
MDA-N = tested on: MDA-N
MOLT-4 = tested on: MOLT-4
Malme-3M = tested on: Malme-3M
NCI-H226 = tested on: NCI-H226
NCI-H23 = tested on: NCI-H23
NCI-H460 = tested on: NCI-H460
NCI-H522 = tested on: NCI-H522
NCI/ADR-RES = tested on: NCI/ADR-RES
OVCAR-3 = tested on: OVCAR-3
OVCAR-4 = tested on: OVCAR-4
OVCAR-5 = tested on: OVCAR-5
OVCAR-8 = tested on: OVCAR-8
PC-3 = tested on: PC-3
RPMI-8226 = tested on: RPMI-8226
RXF 393 = tested on: RXF 393
SF-268 = tested on: SF-268
SF-295 = tested on: SF-295
SF-539 = tested on: SF-539
SK-MEL-28 = tested on: SK-MEL-28
SK-MEL-2 = tested on: SK-MEL-2
SK-MEL-5 = tested on: SK-MEL-5
SK-OV-3 = tested on: SK-OV-3
SN12C = tested on: SN12C
SNB-19 = tested on: SNB-19
SNB-75 = tested on: SNB-75
SR = tested on: SR
SW-620 = tested on: SW-620
T47D = tested on: T47D
TK-10 = tested on: TK-10
U-251 = tested on: U-251
UACC-257 = tested on: UACC-257
UACC-62 = tested on: UACC-62
UO-31 = tested on: UO-31

Cc1nn(C(=O)c2ccccc2O)c2c1C(c1ccccc1)SC(=N)N2 (centres undefined)
GI50 (786-0): 1.57 µM (inactive)
GI50 (A549): 0.6 µM (active)
GI50 (ACHN): 0.419 µM (active)
GI50 (BT-549): > 10 µM (inactive)
GI50 (CAKI-1): 0.547 µM (active)
GI50 (CCRF-CEM): 2.36 µM (inactive)
GI50 (COLO 205): 3.87 µM (inactive)
GI50 (DU-145): 0.627 µM (active)
GI50 (EKVX): > 10 µM (inactive)
GI50 (HCC 2998): 7.69 µM (inactive)
GI50 (HCT-116): 0.906 µM (active)
GI50 (HCT-15): 3.86 µM
GI50 (HL-60): 1.61 µM (inactive)
GI50 (HOP-62): 2.64 µM (inactive)
GI50 (HT-29): 5.38 µM (inactive)
GI50 (Hs-578T): 0.7 µM (active)
GI50 (IGROV-1): 0.481 µM (active)
GI50 (K562): 0.413 µM (active)
GI50 (KM12): 3.53 µM (inactive)
GI50 (LOX IMVI): 3.1 µM (inactive)
GI50 (M14): 1.69 µM (inactive)
GI50 (MCF7): 2.81 µM (inactive)
GI50 (MDA-MB-231): 0.811 µM (active)
GI50 (MDA-MB-435): 0.416 µM (active)
GI50 (MDA-N): 1.2 µM (inactive)
GI50 (MOLT-4): 2.75 µM (inactive)
GI50 (Malme-3M): 0.479 µM (active)
GI50 (NCI-H226): 1.16 µM (inactive)
GI50 (NCI-H23): 0.836 µM (active)
GI50 (NCI-H460): 3.64 µM (inactive)
GI50 (NCI-H522): 3.19 µM (inactive)
GI50 (NCI/ADR-RES): 1.56 µM (inactive)
GI50 (OVCAR-3): 1.79 µM (inactive)
GI50 (OVCAR-4): 1.49 µM (inactive)
GI50 (OVCAR-5): 6.08 µM (inactive)
GI50 (OVCAR-8): 0.867 µM (active)
GI50 (PC-3): 4.57 µM (inactive)
GI50 (RPMI-8226): 2.97 µM (inactive)
GI50 (RXF 393): > 10 µM (inactive)
GI50 (SF-268): 3.27 µM (inactive)
GI50 (SF-295): 3.74 µM (inactive)
GI50 (SF-539): 0.214 µM (active)
GI50 (SK-MEL-28): > 10 µM (inactive)
GI50 (SK-MEL-2): 3.58 µM (inactive)
GI50 (SK-MEL-5): 3.19 µM (inactive)
GI50 (SK-OV-3): 5.6 µM (inactive)
GI50 (SN12C): 2.25 µM (inactive)
GI50 (SNB-19): 6.38 µM (inactive)
GI50 (SNB-75): 0.311 µM (active)
GI50 (SR): 2.42 µM (inactive)
GI50 (SW-620): 3.58 µM (inactive)
GI50 (T47D): 5.43 µM (inactive)
GI50 (TK-10): 0.897 µM (active)
GI50 (U-251): 2.11 µM (inactive)
GI50 (UACC-257): 2.01 µM (inactive)
GI50 (UACC-62): 0.44 µM (active)

O=c1[nH]c(=O)n(C2CC(O)C(CO)O2)cc1Oc1ccccc1 (centres undefined)
GI50 (786-0): > 100 µM (inactive)
GI50 (A549): > 100 µM (inactive)
GI50 (ACHN): > 100 µM (inactive)
GI50 (BT-549): > 100 µM (inactive)
GI50 (CAKI-1): > 100 µM (inactive)
GI50 (CCRF-CEM): > 100 µM (inactive)
GI50 (COLO 205): > 100 µM (inactive)
GI50 (DU-145): > 100 µM (inactive)
GI50 (EKVX): > 100 µM (inactive)
GI50 (HCT-116): > 100 µM (inactive)
GI50 (HCT-15): > 100 µM
GI50 (HL-60): > 100 µM (inactive)
GI50 (HOP-62): > 100 µM (inactive)
GI50 (HT-29): > 100 µM (inactive)
GI50 (Hs-578T): > 100 µM (inactive)
GI50 (IGROV-1): > 100 µM (inactive)
GI50 (K562): > 100 µM (inactive)
GI50 (KM12): > 100 µM (inactive)
GI50 (LOX IMVI): > 100 µM (inactive)
GI50 (M14): > 100 µM (inactive)
GI50 (MCF7): > 100 µM (inactive)
GI50 (MDA-MB-231): > 100 µM (inactive)
GI50 (MDA-MB-435): > 100 µM (inactive)
GI50 (MDA-N): > 100 µM (inactive)
GI50 (MOLT-4): > 100 µM (inactive)
GI50 (Malme-3M): > 100 µM (inactive)
GI50 (NCI-H226): > 100 µM (inactive)
GI50 (NCI-H23): > 100 µM (inactive)
GI50 (NCI-H460): > 100 µM (inactive)
GI50 (NCI-H522): > 100 µM (inactive)
GI50 (NCI/ADR-RES): > 100 µM (inactive)
GI50 (OVCAR-3): > 100 µM (inactive)
GI50 (OVCAR-4): > 100 µM (inactive)
GI50 (OVCAR-5): > 100 µM (inactive)
GI50 (OVCAR-8): > 100 µM (inactive)
GI50 (PC-3): > 100 µM (inactive)
GI50 (RPMI-8226): > 100 µM (inactive)
GI50 (RXF 393): > 100 µM (inactive)
GI50 (SF-268): > 100 µM (inactive)
GI50 (SF-295): 47.4 µM (inactive)
GI50 (SK-MEL-28): > 100 µM (inactive)
GI50 (SK-MEL-5): > 100 µM (inactive)
GI50 (SK-OV-3): > 100 µM (inactive)
GI50 (SN12C): > 100 µM (inactive)
GI50 (SNB-19): > 100 µM (inactive)
GI50 (SNB-75): > 100 µM (inactive)
GI50 (SR): > 100 µM (inactive)
GI50 (T47D): > 100 µM (inactive)
GI50 (TK-10): > 100 µM (inactive)
GI50 (U-251): > 100 µM (inactive)
GI50 (UACC-257): > 100 µM (inactive)
GI50 (UACC-62): > 100 µM (inactive)
GI50 (UO-31): > 100 µM (inactive)

From ChEMBL document CHEMBL1201862, “PubChem BioAssay data set” (2004)
